# Where “and” joins values, the source holds several entries; their conditions need not be identical. Equal entries are not always repeated.
# Legend:
# [1] = test system: Escherichia coli ATCC 11229; assay: AOAC Method 960.09 Germicidal and Detergent Sanitizing Action of Disinfectants, food contact sanitizing suspension test; format: cell-based; conditions: 30 ppm, pH 5, 120° F.
# Protocol: (§1) The microbial efficacy of the multipurpose sanitizing composition was evaluated for food contact applications. The purpose of the testing is to determine the efficacy of compositions used for sanitizing food contact surfaces, which in the evaluations were pre-cleaned, non-porous surfaces using AOAC Method 960.09 Germicidal and Detergent Sanitizing Action of Disinfectants. […] The test organisms included Staphylococcus aureus ATCC 6538 and Escherichia coli ATCC 11229.
# (§2) The pH was adjusted by use of a polycarboxylic acid (unless otherwise noted, such as the polycarboxylate citrate tested at pH 8). In this screening test pH 9, 8, 7, 5, 4, and 3 were tested. “NT” indicates a condition was “Not Tested.”
# [2] = test system: Staphylococcus aureus ATCC 6538; assay: as above; format: cell-based; conditions: 30 ppm, pH 5, 120° F.
# Protocol: as §1, §2
substance,measurement,setting,value
didecyl dimethyl ammonium methyl sulfonate/sulfate [Quat],Average Log Reduction,[1],4.93 log
same,Log Reduction,"[1]; per replicate, listed as Stepan Quat",4.85 log and 5.02 log
same,CFU - Dilution 1E−01,[1]; listed as Stepan Quat,63 CFU and 46 CFU
same,CFU/mL,[1]; listed as Stepan Quat,6.8E+02 CFU/mL and 4.6E+02 CFU/mL
same,Log,[1]; listed as Stepan Quat,2.83 and 2.67
same,log reduction S. aureus (ATCC 6538),[2],6.69 log
